Measured values published in PubChem BioAssay AID328 (DTP/NCI, 2004).
Several values for one entry are separate records, joined by “and”; a condition that tells them apart may be missing. Equal values may be shown once. Toxic doses and inconclusive results are not listed.

System: BDF1 mice, P388 leukemia ip, median survival T/C
Experiment: NCI In Vivo Anticancer Drug Screen. Data for tumor model P388 Leukemia (intraperitoneal) in B6D2F1 (BDF1) mice
Conditions: endpoint: median survival time, higher = longer survival
Procedure, shortened: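 Antitumour effect was judged in vivo: survival in drug-treated mice, normalised to that of vehicle-dosed controls, gives the reported T/C.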

[1] = dose: 10.0 mg/kg/injection, schedule: Q04DX003 (ip), vehicle: Klucel (hydroxypropylcellulose) (HPC)
[2] = dose: 100.0 mg/kg/injection, schedule: Q01DX009 (ip), vehicle: saline with Tween-80
[3] = dose: 200.0 mg/kg/injection, schedule: Q01DX009 (ip), vehicle: saline with Tween-80
[4] = dose: 400.0 mg/kg/injection, schedule: Q01DX009 (ip), vehicle: saline with Tween-80

**Q.** `CC(CN1CC(=O)NC(=O)C1)N1CC(=O)NC(=O)C1` (centres undefined) was tested. Which T/C (dose: 3.12 mg/kg/injection, schedule: Q03HX024 (ip), vehicle: steriod suspending solution) did it give?
**A.** Its T/C is 200 % of control.

**Q.** What about the T/C (dose: 3.75 mg/kg/injection, schedule: Q01DX010 (oral), vehicle: saline with Tween-80) of the same compound?
**A.** The T/C was 109 % of control.

**Q.** What about the T/C (dose: 6.25 mg/kg/injection, schedule: Q03HX024 (ip), vehicle: steriod suspending solution) of the same compound?
**A.** The T/C was 205 % of control.

**Q.** And the T/C [1]?
**A.** The T/C was 117 % of control.

**Q.** And the T/C (dose: 12.5 mg/kg/injection, schedule: Q01DX009 (ip), vehicle: steriod suspending solution)?
**A.** The T/C was 100 % of control.

**Q.** And the T/C (dose: 12.5 mg/kg/injection, schedule: Q03HX024 (ip), vehicle: steriod suspending solution)?
**A.** The T/C was 258 % of control.

**Q.** What about the T/C (dose: 15.0 mg/kg/injection, schedule: Q01DX010 (oral), vehicle: saline with Tween-80) of the same compound?
**A.** Its T/C is 154 % of control.

**Q.** And the T/C (dose: 25.0 mg/kg/injection, schedule: Q03HX024 (ip), vehicle: steriod suspending solution)?
**A.** The T/C was 211 % of control.

**Q.** What about the T/C (dose: 30.0 mg/kg/injection, schedule: Q01DX010 (ip), vehicle: saline) of the same compound?
**A.** The T/C was 186 % of control.

**Q.** And the T/C (dose: 50.0 mg/kg/injection, schedule: Q01DX009 (ip), vehicle: steriod suspending solution)?
**A.** Its T/C is 164 % of control.

**Q.** And the T/C (dose: 50.0 mg/kg/injection, schedule: Q04DX002 (ip), vehicle: Klucel (hydroxypropylcellulose) (HPC))?
**A.** Its T/C is 111 % of control.

**Q.** What about the T/C (dose: 60.0 mg/kg/injection, schedule: Q01DX010 (ip), vehicle: saline) of the same compound?
**A.** The T/C was 181 % of control.

**Q.** What about the T/C (dose: 100.0 mg/kg/injection, schedule: Q01DX001 (ip), vehicle: steriod suspending solution) of the same compound?
**A.** The T/C was 111 % of control.

**Q.** And the T/C (dose: 100.0 mg/kg/injection, schedule: Q01DX009 (ip), vehicle: steriod suspending solution)?
**A.** The T/C was 111 % of control.

**Q.** What about the T/C (dose: 100.0 mg/kg/injection, schedule: Q04DX002 (ip), vehicle: Klucel (hydroxypropylcellulose) (HPC)) of the same compound?
**A.** Its T/C is 108 % of control.

**Q.** And the T/C (dose: 100.0 mg/kg/injection, schedule: Q04DX003 (ip), vehicle: steriod suspending solution)?
**A.** The T/C was 176 % of control.

**Q.** And the T/C (dose: 108.0 mg/kg/injection, schedule: Q04DX003 (ip), vehicle: Klucel (hydroxypropylcellulose) (HPC))?
**A.** Its T/C is 231 % of control.

**Q.** What about the T/C (dose: 120.0 mg/kg/injection, schedule: Q01DX010 (ip), vehicle: saline) of the same compound?
**A.** The T/C was 113 % of control.

**Q.** What about the T/C (dose: 144.0 mg/kg/injection, schedule: Q04DX003 (ip), vehicle: Klucel (hydroxypropylcellulose) (HPC)) of the same compound?
**A.** The T/C was 203 % of control.

**Q.** And the T/C (dose: 180.0 mg/kg/injection, schedule: Q04DX003 (ip), vehicle: Klucel (hydroxypropylcellulose) (HPC))?
**A.** Its T/C is 287 % of control.

**Q.** What about the T/C (dose: 180.0 mg/kg/injection, schedule: Q04DX003 (ip), vehicle: alkali diluted with saline) of the same compound?
**A.** Its T/C is 196 % of control.

**Q.** And the T/C (dose: 200.0 mg/kg/injection, schedule: Q04DX002 (ip), vehicle: Klucel (hydroxypropylcellulose) (HPC))?
**A.** The T/C was 161 % of control.

**Q.** And the T/C (dose: 200.0 mg/kg/injection, schedule: Q04DX003 (ip), vehicle: Klucel (hydroxypropylcellulose) (HPC))?
**A.** The T/C was 100 % of control and 153 % of control and 215 % of control.

**Q.** What about the T/C (dose: 200.0 mg/kg/injection, schedule: Q04DX003 (ip), vehicle: steriod suspending solution) of the same compound?
**A.** The T/C was 194 % of control.

**Q.** And the T/C (dose: 216.0 mg/kg/injection, schedule: Q04DX003 (ip), vehicle: Klucel (hydroxypropylcellulose) (HPC))?
**A.** The T/C was 212 % of control.

**Q.** And the T/C (dose: 240.0 mg/kg/injection, schedule: Q04DX003 (ip), vehicle: Klucel (hydroxypropylcellulose) (HPC))?
**A.** Its T/C is 245 % of control.

**Q.** What about the T/C (dose: 300.0 mg/kg/injection, schedule: Q04DX003 (ip), vehicle: alkali diluted with saline) of the same compound?
**A.** The T/C was 252 % of control.

**Q.** And the T/C (dose: 400.0 mg/kg/injection, schedule: Q01DX001 (ip), vehicle: steriod suspending solution)?
**A.** The T/C was 152 % of control.

**Q.** And the T/C (dose: 400.0 mg/kg/injection, schedule: Q04DX002 (ip), vehicle: Klucel (hydroxypropylcellulose) (HPC))?
**A.** The T/C was 193 % of control and 199 % of control.

**Q.** And the T/C (dose: 400.0 mg/kg/injection, schedule: Q04DX003 (ip), vehicle: steriod suspending solution)?
**A.** The T/C was 176 % of control.

**Q.** What about the T/C (dose: 500.0 mg/kg/injection, schedule: Q04DX003 (ip), vehicle: Klucel (hydroxypropylcellulose) (HPC)) of the same compound?
**A.** The T/C was 91 % of control and 96 % of control.

**Q.** What about the T/C (dose: 500.0 mg/kg/injection, schedule: Q04DX003 (ip), vehicle: alkali diluted with saline) of the same compound?
**A.** Its T/C is 93 % of control.

**Q.** And the T/C (dose: 800.0 mg/kg/injection, schedule: Q01DX001 (ip), vehicle: steriod suspending solution)?
**A.** Its T/C is 94 % of control.

**Q.** What about the T/C (dose: 800.0 mg/kg/injection, schedule: Q04DX003 (ip), vehicle: steriod suspending solution) of the same compound?
**A.** Its T/C is 111 % of control.

**Q.** Which T/C (dose: 50.0 mg/kg/injection, schedule: Q01DX001 (ip), vehicle: Klucel (hydroxypropylcellulose) (HPC)) does the source give for `O=Nc1ccc2ccccc2c1O` here?
**A.** The T/C was 107 % of control.

**Q.** What about the T/C (dose: 100.0 mg/kg/injection, schedule: Q01DX001 (ip), vehicle: Klucel (hydroxypropylcellulose) (HPC)) of the same compound?
**A.** The T/C was 104 % of control.

**Q.** With `O=C1c2ccccc2C(=Cc2ccccc2)c2ccccc21` as the compound, how does the T/C [2] read?
**A.** The T/C was 118 % of control.

**Q.** What about the T/C [3] of the same compound?
**A.** Its T/C is 100 % of control.

**Q.** What about the T/C [4] of the same compound?
**A.** Its T/C is 113 % of control.

**Q.** With `O=S(=O)(Nc1ccc(-c2ccccc2)cc1)c1ccccc1` as the compound, how does the T/C (dose: 50.0 mg/kg/injection, schedule: Q01DX009 (ip), vehicle: saline with Tween-80) read?
**A.** The T/C was 108 % of control.

**Q.** What about the T/C [2] of the same compound?
**A.** The T/C was 101 % of control.

**Q.** And the T/C [3]?
**A.** Its T/C is 101 % of control.

**Q.** And the T/C [4]?
**A.** Its T/C is 106 % of control.

**Q.** What does the source list for `O=C(O)c1ccc(N2C(=O)C=CC2=O)cc1` (tested in a mixture with another compound)?
**A.** T/C (dose: 0.39 mg/kg/injection, schedule: Q01DX009 (ip), vehicle: Klucel (hydroxypropylcellulose) (HPC)): 95 % of control; T/C (dose: 0.78 mg/kg/injection, schedule: Q01DX009 (ip), vehicle: Klucel (hydroxypropylcellulose) (HPC)): 108 % of control; T/C (dose: 1.25 mg/kg/injection, schedule: Q01DX001 (ip), vehicle: Klucel (hydroxypropylcellulose) (HPC)): 100 % of control; T/C (dose: 1.56 mg/kg/injection, schedule: Q01DX009 (ip), vehicle: Klucel (hydroxypropylcellulose) (HPC)): 95 % of control; T/C (dose: 2.5 mg/kg/injection, schedule: Q01DX001 (ip), vehicle: Klucel (hydroxypropylcellulose) (HPC)): 104 % of control; T/C (dose: 3.12 mg/kg/injection, schedule: Q01DX009 (ip), vehicle: Klucel (hydroxypropylcellulose) (HPC)): 110 % of control; T/C (dose: 4.6 mg/kg/injection, schedule: Q04DX003 (ip), vehicle: Klucel (hydroxypropylcellulose) (HPC)): 95 % of control; T/C (dose: 5.0 mg/kg/injection, schedule: Q01DX001 (ip), vehicle: Klucel (hydroxypropylcellulose) (HPC)): 104 % of control; T/C (dose: 7.0 mg/kg/injection, schedule: Q04DX003 (ip), vehicle: Klucel (hydroxypropylcellulose) (HPC)): 95 % of control; T/C [1]: 100 % of control

**Q.** What does the source list for `COc1cccc(CC2c3ccccc3Nc3ccccc32)c1`?
**A.** T/C (dose: 100.0 mg/kg/injection, schedule: Q01DX001 (ip), vehicle: saline with Tween-80): 88 % of control; T/C (dose: 200.0 mg/kg/injection, schedule: Q01DX001 (ip), vehicle: saline with Tween-80): 87 % of control; T/C (dose: 400.0 mg/kg/injection, schedule: Q01DX001 (ip), vehicle: saline with Tween-80): 89 % of control

**Q.** `COc1cc2c(cc1OC)-c1c3c(cc4c1[C@H](C2)N(C)CC4)OCO3` was tested. Which T/C (dose: 37.5 mg/kg/injection, schedule: Q01DX009 (ip), vehicle: Klucel (hydroxypropylcellulose) (HPC)) did it give?
**A.** Its T/C is 97 % of control.

**Q.** What about the T/C (dose: 75.0 mg/kg/injection, schedule: Q01DX009 (ip), vehicle: Klucel (hydroxypropylcellulose) (HPC)) of the same compound?
**A.** Its T/C is 98 % of control.

**Q.** And the T/C (dose: 150.0 mg/kg/injection, schedule: Q01DX009 (ip), vehicle: Klucel (hydroxypropylcellulose) (HPC))?
**A.** The T/C was 98 % of control.

**Q.** What does the source list for `COc1ccc(C=O)cc1OCc1ccccc1`?
**A.** T/C (dose: 6.25 mg/kg/injection, schedule: Q01DX009 (ip), vehicle: water): 113 % of control; T/C (dose: 12.5 mg/kg/injection, schedule: Q01DX009 (ip), vehicle: water): 104 % of control; T/C (dose: 25.0 mg/kg/injection, schedule: Q01DX009 (ip), vehicle: water): 109 % of control; T/C (dose: 50.0 mg/kg/injection, schedule: Q01DX009 (ip), vehicle: water): 101 % of control and 116 % of control; T/C (dose: 50.0 mg/kg/injection, schedule: Q04DX003 (ip), vehicle: water): 104 % of control; T/C (dose: 100.0 mg/kg/injection, schedule: Q01DX009 (ip), vehicle: water): 95 % of control and 97 % of control; T/C (dose: 100.0 mg/kg/injection, schedule: Q04DX003 (ip), vehicle: water): 102 % of control and 117 % of control; T/C (dose: 200.0 mg/kg/injection, schedule: Q01DX009 (ip), vehicle: water): 116 % of control; T/C (dose: 200.0 mg/kg/injection, schedule: Q04DX003 (ip), vehicle: water): 102 % of control and 114 % of control; T/C (dose: 400.0 mg/kg/injection, schedule: Q04DX003 (ip), vehicle: water): 117 % of control
